# pKd: −log10 of the molar value. Structures can show the parent of a compound that is named as a salt.
# Columns and labels:
# [1] = biological target: T1, recombinant human sPLA2-IIA enzyme (Homo sapiens, UniProt P14555); assay: sPLA2-IIA enzyme inhibition assay (thio-PC substrate, DTNB detection, absorbance 410 nm); format: biochemical; settings: class symbols; read-out: sPLA2 Type IIa Inhibition (IC50; nM)
# T1 construct: made in house; host or cells: E. coli
# T1 sequence (P14555 21-144): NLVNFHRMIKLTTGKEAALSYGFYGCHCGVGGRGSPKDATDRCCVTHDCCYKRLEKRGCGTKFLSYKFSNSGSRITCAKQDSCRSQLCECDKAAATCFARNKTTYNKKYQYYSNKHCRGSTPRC
# [2] = biological target: T2, recombinant human sPLA2-V enzyme (Homo sapiens, UniProt P39877); assay: sPLA2-V enzyme inhibition assay (thio-PC substrate, DTNB detection, absorbance 410 nm); format: biochemical; settings: class symbols; read-out: sPLA2 Type V Inhibition (IC50; nM)
# T2 construct: made in house; host or cells: E. coli
# T2 sequence (P39877 21-138): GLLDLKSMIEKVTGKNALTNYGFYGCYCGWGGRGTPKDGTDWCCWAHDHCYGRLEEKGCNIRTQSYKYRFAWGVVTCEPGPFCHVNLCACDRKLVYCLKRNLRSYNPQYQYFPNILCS
# sPLA2-X protein [3] = biological target: T3, sPLA2-X protein (Homo sapiens, UniProt O15496); assay: sPLA2-X enzyme inhibition assay (thio-PC substrate, DTNB detection, absorbance 410 nm); format: biochemical; parameters: made in house; host or cells: E. coli; settings: class symbols; read-out: sPLA2 Type X Inhibition (IC50; nM)
# T3 sequence (O15496 43-165): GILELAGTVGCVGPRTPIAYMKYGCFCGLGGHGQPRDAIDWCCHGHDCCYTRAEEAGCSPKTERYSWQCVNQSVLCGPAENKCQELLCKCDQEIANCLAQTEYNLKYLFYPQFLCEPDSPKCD
# sPLA2-X protein [4] = biological target: T3, sPLA2-X protein; assay: SPR single cycle kinetic binding analysis against sPLA2-X; parameters: His tag (implied by capture on NTA surface and by anti-His antibody); settings: protein captured cross-linked on NTA surface, 1:1 fit
# Procedure: sPLA2-X protein was captured on flow cell 2-4 on activated NTA surface (NTA Series S Sensorchip (Cytiva)) after dilution in 1×HBS-EP+buffer (Cytiva), 10 mM CaCl2 to 0.01 mg/mL with a flow rate of 5 μL/min for 60 sec. Single cycle kinetic binding analysis was performed using 10 mM stock solution of LY531590 (Cayman Chemical, item #18267) (prepared in DMSO diluted 1:5 in running buffer (lx HBS-EP+buffer (Cytiva)+10 mM CaCl2+2% DMSO) from 10 to 0.016 μM. Flow cell 1 was used as a reference surface and 350 mM EDTA (Cytiva) was used to regenerate the surface. DMSO solvent correction was included. A 1:1 fit was used for the kinetics analysis.
# SPLA2-X protein was captured cross-linked on flow cell 2, 3, and 4 with activated NTA surface (NTA Series S Sensorchip (Cytiva)) at 0.01 mg/mL with a flow rate of […] for 60 sec. Single cycle kinetic binding analysis was performed using a 50 mM stock solution of Compound 5 (prepared in DMSO) diluted 1:5 in running buffer (1×HIBS-EP+buffer (Cytiva)+10 mM CaCl2+2% o DMSO) from 800 to 1.2 nMV. Flow cell 1 was used as a reference surface. DMSO solvent correction was included. A 1:1 fit was used for the kinetics and steady state affinity analysis.
smiles,measurement,setting,value
"CC(C)(CC(=O)O)c1cccc(-n2c(C(N)=O)cc3ccc(OC(F)(F)F)cc32)n1 [Compound 62, 3-(6-(2-carbamoyl-6-(trifluoromethoxy)-1H-indol-1-yl)pyridin-2-yl)-3-methylbutanoic acid]",IC50,[1],> 1000 nM
same,IC50,[2],1500 to 5000 nM
same,IC50,sPLA2-X protein [3],20 to 50 nM
"NC(=O)c1sc2ccc(OC(F)(F)F)cc2c1-c1cccc(C2CC2C(=O)O)n1 (stereo not drawn) [Compound 56, trans-2-(6-(2-carbamoyl-5-(trifluoromethoxy)benzo[b]thiophen-3-yl)pyridin-2-yl)cyclopropane-1-carboxylic acid]",IC50,[1],> 1000 nM
same,IC50,[2],> 5000 nM
same,IC50,sPLA2-X protein [3],< 20 nM
"NC(=O)c1cc2ccccc2n1-c1cccc(CCC(=O)O)c1 [Compound 21, 3-(3-(2-carbamoyl-1H-indol-1-yl)phenyl)propanoic acid]",IC50,[1],> 1000 nM
same,IC50,[2],> 5000 nM
same,IC50,sPLA2-X protein [3],> 200 nM
"NC(=O)c1cc2ccc(OC(F)(F)F)cc2n1-c1cccc(C2CC2C(=O)O)n1 (racemic) [Compound 28c, cis-(rac)-2-(6-(2-carbamoyl-6-(trifluoromethoxy)-1H-indol-1-yl)pyridin-2-yl)cyclopropane-1-carboxylic acid]",IC50,[1],200 to 500 nM
same,IC50,[2],1500 to 5000 nM
same,IC50,sPLA2-X protein [3],20 to 50 nM
"NC(=O)c1cc2ccc(OC(F)(F)F)cc2n1-c1cccc(C2CC2C(=O)O)n1 (single isomer, unassigned) [Compound 28d, cis-(−)-2-(6-(2-carbamoyl-6-(trifluoromethoxy)-1H-indol-1-yl)pyridin-2-yl)cyclopropane-1-carboxylic acid]",IC50,[1],> 1000 nM
same,IC50,[2],1500 to 5000 nM
same,IC50,sPLA2-X protein [3],50 to 200 nM
"CC(C)(Sc1cccc(-n2c(C(N)=O)cc3ccc(OC(F)(F)F)cc32)c1)C(=O)O [Compound 2, 2-((3-(2-carbamoyl-6-(trifluoromethoxy)-1H-indol-1-yl)phenyl)thio)-2-methylpropanoic acid]",IC50,[1],200 to 500 nM
same,IC50,[2],500 to 1500 nM
same,IC50,sPLA2-X protein [3],< 20 nM
"NC(=O)c1cc2ccc(OC(F)(F)F)cc2n1-c1cccc(C2(CC(=O)O)CCC2)c1 [Compound 30, 2-(1-(3-(2-carbamoyl-6-(trifluoromethoxy)-1H-indol-1-yl)phenyl)cyclobutyl)acetic acid]",IC50,[1],> 1000 nM
same,IC50,[2],1500 to 5000 nM
same,IC50,sPLA2-X protein [3],< 20 nM
"NC(=O)c1cc2ccc(OC(F)(F)F)cc2n1-c1cccc(C[C@H](N)C(=O)O)c1 [Compound 24, (S)-2-amino-3-(3-(2-carbamoyl-6-(trifluoromethoxy)-1H-indol-1-yl)phenyl)propanoic acid TFA salt]",IC50,[1],> 1000 nM
same,IC50,[2],> 5000 nM
same,IC50,sPLA2-X protein [3],> 200 nM
"NC(=O)c1cc2ccc(OC(F)(F)F)cc2n1-c1ccc2c(c1)C(CC(=O)O)CO2 (single isomer, unassigned; (+)) [Compound 1a, (+)-2-(5-(2-carbamoyl-6-(trifluoromethoxy)-1H-indol-1-yl)-2,3-dihydrobenzofuran-3-yl)acetic acid]",IC50,[1],> 1000 nM
same,IC50,[2],> 5000 nM
same,IC50,sPLA2-X protein [3],50 to 200 nM
"NC(=O)c1sc2ccccc2c1-c1cccc(CCC(=O)O)c1 [Compound 13, 3-(3-(2-carbamoylbenzo[b]thiophen-3-yl)phenyl)propanoic acid]",IC50,[1],> 1000 nM
same,IC50,[2],> 5000 nM
same,IC50,sPLA2-X protein [3],> 200 nM
"NC(=O)c1sc2ccc(OC(F)(F)F)cc2c1-c1cccc(C2CC2C(=O)O)n1 (racemic) [Compound 54, trans-(rac)-2-(6-(2-carbamoyl-5-(trifluoromethoxy)benzo[b]thiophen-3-yl)pyridin-2-yl)cyclopropane-1-carboxylic acid]",IC50,[1],> 1000 nM
same,IC50,[2],> 5000 nM
same,IC50,sPLA2-X protein [3],50 to 200 nM
"COc1cnc2cc(C(N)=O)n(-c3cccc(C4CC4C(=O)O)n3)c2c1 (single isomer, unassigned) [Compound 51, trans-2-(6-(2-carbamoyl-6-methoxy-1H-pyrrolo[3,2-b]pyridin-1-yl)pyridin-2-yl)cyclopropane-1-carboxylic acid]",IC50,[1],> 1000 nM
same,IC50,[2],> 5000 nM
same,IC50,sPLA2-X protein [3],> 200 nM
"NC(=O)c1cc2ccc(OC(F)(F)F)cc2n1-c1cccc(N2CC[C@H]2C(=O)O)n1 [Compound 69, (S)-1-(6-(2-carbamoyl-6-(trifluoromethoxy)-1H-indol-1-yl)pyridin-2-yl)azetidine-2-carboxylic acid]",IC50,[1],> 1000 nM
same,IC50,[2],> 5000 nM
same,IC50,sPLA2-X protein [3],> 200 nM
"CC(C)(Cc1cccc(-n2c(C(N)=O)cc3ccc(OC(F)(F)F)cc32)c1)C(=O)O [Compound 3, 3-(3-(2-carbamoyl-6-(trifluoromethoxy)-1H-indol-1-yl)phenyl)-2,2-dimethylpropanoic acid]",IC50,[1],500 to 1000 nM
same,IC50,[2],1500 to 5000 nM
same,IC50,sPLA2-X protein [3],< 20 nM
"NC(=O)c1cc2ccc(OC(F)(F)F)cc2n1-c1cccc(SC2(C(=O)O)CCC2)c1 [Compound 4, 1-((3-(2-carbamoyl-6-(trifluoromethoxy)-1H-indol-1-yl)phenyl)thio)cyclobutane-1-carboxylic acid]",IC50,[1],200 to 500 nM
same,IC50,[2],< 500 nM
same,IC50,sPLA2-X protein [3],< 20 nM
"NC(=O)c1cc2ccc(OC(F)(F)F)cc2n1-c1cccc(C(F)(F)CO)c1 [Compound 46, 1-(3-(1,1-difluoro-2-hydroxyethyl)phenyl)-6-(trifluoromethoxy)-1H-indole-2-carboxamide]",IC50,[1],> 1000 nM
same,IC50,[2],> 5000 nM
same,IC50,sPLA2-X protein [3],50 to 200 nM
"NC(=O)c1sc2ccc(OC(F)(F)F)cc2c1-c1cccc(CCC(=O)O)c1 [Compound 5, 3-(3-(2-carbamoyl-5-(trifluoromethoxy)benzo[b]thiophen-3-yl)phenyl)propanoic acid]",IC50,[1],200 to 500 nM
same,IC50,[2],1500 to 5000 nM
same,Rmax,sPLA2-X protein [4],2.13
same,pKd,sPLA2-X protein [4]; kinetics and steady state affinity,8.10
same,IC50,sPLA2-X protein [3],20 to 50 nM
"NC(=O)c1cc2ccc(OC(F)(F)F)cc2n1-c1cccc([C@@H]2C[C@H]2C(=O)O)n1 (single isomer, unassigned) [Compound 28b, trans-(+)-2-(6-(2-carbamoyl-6-(trifluoromethoxy)-1H-indol-1-yl)pyridin-2-yl)cyclopropane-1-carboxylic acid]",IC50,[1],> 1000 nM
same,IC50,[2],> 5000 nM
same,IC50,sPLA2-X protein [3],> 200 nM
"NC(=O)c1cc2ccc(OC(F)(F)F)cc2n1-c1ccc2oc(C(=O)O)cc2c1 [Compound 16, 5-(2-carbamoyl-6-(trifluoromethoxy)-1H-indol-1-yl)benzofuran-2-carboxylic acid]",IC50,[1],> 1000 nM
same,IC50,[2],> 5000 nM
same,IC50,sPLA2-X protein [3],50 to 200 nM
"NC(=O)c1cc2ccc(OC(F)(F)F)cc2n1-c1ccc2c(c1)C(CC(=O)O)CO2 (centres unmarked) [Compound 1, 2-(5-(2-carbamoyl-6-(trifluoromethoxy)-1H-indol-1-yl)-2,3-dihydrobenzofuran-3-yl)acetic acid]",IC50,[1],> 1000 nM
same,IC50,[2],> 5000 nM
same,IC50,sPLA2-X protein [3],50 to 200 nM
CS(=O)(=O)NCc1cccc(-n2c(C(N)=O)cc3ccc(OC(F)(F)F)cc32)n1 [Compound 33],IC50,[1],> 1000 nM
same,IC50,[2],> 5000 nM
same,IC50,sPLA2-X protein [3],> 200 nM
"CNC(=O)c1cc2ccc(OC(F)(F)F)cc2n1-c1cccc(CCC(=O)O)c1 [Compound 14, 3-(3-(2-(methylcarbamoyl)-6-(trifluoromethoxy)-1H-indol-1-yl)phenyl)propanoic acid]",IC50,[1],> 1000 nM
same,IC50,[2],> 5000 nM
same,IC50,sPLA2-X protein [3],> 200 nM
"NCc1cccc(-n2c(C(N)=O)cc3ccc(OC(F)(F)F)cc32)n1 [Compound 27, 1-(6-(aminomethyl)pyridin-2-yl)-6-(trifluoromethoxy)-1H-indole-2-carboxamide TFA salt]",IC50,[1],> 1000 nM
same,IC50,[2],> 5000 nM
same,IC50,sPLA2-X protein [3],> 200 nM
